Source: patent US12503426B2, “Synthetic derivatives of oleoyl-lysophosphatidylinositol (oleoyl-LPI) and uses thereof” (LIPOVEXA SRL, priority 2017, dated 2025)

Legend:
NCI-H716 cells = experiment: GLP-1 secretion in NCI-H716 cells, in vitro human L cells model (Examples 30-33); assay type: cell-based; details: for Emax: Homo sapiens, NCI-H716, 2 h; for GLP-1 biosynthesis and secretion from NCI-H716 L cells / level of GLP-1 biosynthesis and secretion compared with oleoyl-LPI: 20 μM, 2 hours; for GLP-1 biosynthesis and secretion from NCI-H716 L cells: normalized against DMSO vehicle control; for activity in inducing and/or increasing secretion of GLP-1 from cells of the GI tract: summary statement, compared with oleoyl-LPI
Experimental: To evaluate the GLP-1 biosynthesis and secreting capabilities of the compounds of formula I in vitro using the human-derived cell line NCI-H716, 50,000 such cells were seeded per well of a 24-well plate pre-coated with a thin layer of Matrigel (0.15 mg/ml) in RPMI complete (RPMI additioned with FBS 10%, Glucose 2 g/L, Glutamine 4 mM, Sodium Bicarbonate 2 g/L, Pen/Strep 1× pH 7.4 at 37° C.) and incubated at 37° C. in humidified 5% CO2 atmosphere to induce endocrine differentiation.
After 48 hours, media was withdrawn and cells washed once with warm HBSS (Hank's balanced salt solution) and then incubated in duplicate for 2 hours with the different dilutions of the oleoyl-LPI, OEA, DMSO (as negative control), a test compound of formula I, and KR-62436 10 μg/ml, all dissolved in RPMI serum free (RPMI complete without FBS) at 37° C. in humidified 5% CO2 incubator. Supernatant were quickly collected on ice and stored at −80° C. before quantification of GLP-1 with a commercial ELISA (EMD Millipore) specific for active-GLP-1 species.
To evaluate the GLP-1 biosynthesis and secreting capabilities of the compounds of formula I in vitro using the human-derived cell line NCI-H716, 50,000 such cells were seeded per well of a 24-well plate pre-coated with a thin layer of Matrigel (0.15 mg/ml) in RPMI complete (RPMI additioned with FBS 10%, Glucose 2 g/L, Glutamine 4 mM, Sodium Bicarbonate 2 g/L, Pen/Strep 1×pH 7.4 at 37° C.) and incubated at 37° C. in humidified 5% CO2 atmosphere to induce endocrine differentiation.
After 48 hours, media was withdrawn and cells washed twice with pre-warm HBSS (Hank's balanced salt solution) and then incubated in duplicate for 2 hours with 250 μl of 20 μM of either oleoyl-LPI, DMSO (as negative control) or a test compound of formula I, and […], all dissolved in RPMI serum free (RPMI complete without FBS) at 37° C. in humidified 5% CO2 incubator. Compounds of formula I tested were ps297b, ps316a, ps318a, ps319a, ps321a and ps323.
Supernatant were quickly collected on ice and stored at −80° C. before quantification of GLP-1 with a commercial ELISA (EMD Millipore) specific for active-GLP-1 species (e.g., GLP-1 (7-36) amide) and […]).
Compounds of formula I were tested for GLP-1 secretion in NCI-H716 cells essentially as describe in examples 30 and 31 above. EC50 GLP-1 secretion readout results were standardized relative to maximum GLP-1 secretion obtained with oleoyl-LPI. EC50 readout results were rated as low GLP-1 secretion activity (0-20% of maximum GLP-1 secretion achieved with oleoyl-LPI), moderate (21-79% of maximum GLP-1 secretion achieved with oleoyl-LPI), and high GLP-1 activity (80% and more of maximum GLP-1 secretion achieved with oleoyl-LPI). Table 3 also outlines the R1, R2 and R3 substituents of the compounds of formula I.

Glutag cells = experiment: GLP-1 secretion by Glutag cells; assay type: cell-based, murine; details: Glutag cells
Experimental: Glutag cells were maintained in low glucose DMEM (Sigma) (1 g/L) containing 2.0 mM L-glutamine, 1.0 mM sodium pyruvate and supplemented with 10% FBS, 100 IU/ml penicillin, 100 μg/ml streptomycin at a 37° C. and 5% CO2.
Approximately 80,000 Glutag cells were plated in poly-L-lysine-coated 24-well culture plates and grown to about 80% confluence. NCI-H716 cells were seeded on growth factor reduced Matrigel™ (Becton Dickinson, Bedford, MA) in DMEM medium, supplemented with 10% FBS the day before the experiment. For NCI-H716 cells, approximately 25,000 cells were needed for this secretion experiment in order to have good stimulation with lower basal GLP-1 secretion. In brief, Glutag and NCI-H716 cells were washed twice and then incubated for 2 h with FBS-free DMEM containing 1% (M:C) alone (negative control), 10 μM forskolin as positive control (Sigma-Aldrich), or with different concentrations of Oleoyl-LPI. M:C was used as a solvent to prepare stock solutions of fatty acid derivatives and inhibitors. For secretion experiments, medium and cells were collected separately.
In separate studies, GLUTag or NCI-H716 cells were pre-treated for 1 hour with medium alone (1% DMSO, negative control), PD98059 (50 μM; Sigma Chemical Co.), H89 (10 μM; Santa Cruz) followed by treatment with oleoyl-LPI (20 μM), OEA (10 μM), AR231453(1 μM), PMA (10 μM) or forskolin (10 μM, positive control) in the presence of inhibitors, as appropriate, for about 2 h. Medium GLP-1 secretion was calculated as total GLP-1 content of medium normalised for the basal secretion of the control.
In order to investigate the role of different LPI species in enteroendocrine cells, murine (Glutag) and human (NCI-H716) L-cells were stimulated with the following different species of LPI: Arachidonyl-LPI, Stearoyl-LPI, Heptadecenoyl-LPI and oleoyl-LPI, as well as with OEA and LPC. Experiments were performed in duplicate, n=4 and the level of total GLP-1 was measured by ELISA.

[1] = test system: colonic cells of the GI tract obtained from guinea pig; experiment: Ex vivo GLP-1 biosynthesis and secretion, guinea pig GI tract cells; assay type: cell-based
Experimental: To test for this, a pregnant guinea pig was anesthetized with isoflurane and sacrificed via intra-cardial injection of pentobarbital. Colon and rectum were quickly collected and intraluminal content washed out with ice-cold HBSS. After a thorough cleansing from the faecal material, and gentle scraping of the internal mucosa, the tissue was minced into 3 to 5-millimetre pieces and resuspended into 50 ml of ice cold HBSS. Pellet was spun down and washed again in 50 ml of ice-cold HBSS. Supernatant was carefully removed, and the epithelial fragments were then resuspended for 30 minutes at 37° C. into a 5 ml solution of HEPES 25 mM, collagenase-P 1 mg/ml in HBSS, pH 7.4 at 37° C.
The tissue was then pelleted and resuspended further for about 30 to 40 additional minutes at 37° C. within a 10 ml solution of 1 mg/ml collagenase-P as above.
After the digestion, about 40 ml of pre-warmed DMEM complete media was added (FBS 10%, glucose 4.5 g/L, glutamine 4 mM, sodium pyruvate 1 mM, HEPES 25 mM, sodium bicarbonate 3.7 g/L, Pen/Strep 1× and Ciprofloxacin 10 μg/ml pH 7.4 at 37° C.). Crypts and individual cells were isolated with a […] nylon strainer, spun down at 200 g for 5 minutes, resuspended into 10 ml of DMEM complete media and plated into 20 wells of a 24-well plate coated with a 3D gel of 3 mg/ml Matrigel (BD, Biosciences, Oxford, UK). After one day of incubation at 37° C. 5% CO2 in a humidified incubator, cells were washed with 500 μl of warm HBSS, and treated with 250 μl DMEM serum free (Complete medium without FBS) additioned with KR-62436 10 μg/ml and individually the following drugs or compounds: Forskolin and IBMX (20 μM each), oleoyl-LPI, and the two oleoyl-LPI analogs and/or derivatives ps297b (prepared as described in example 13) and ps316a (prepared as described in example 22) were all tested in quadruplicate at 20 μM.
After a 2-hour long incubation at 37 C 5% CO2, the supernatants were collected on ice, and quickly stored at […]. Active GLP-1 levels (7-37 amide and 7-36) were quantified on 50 μl of supernatant with an ELISA commercial kit (EMD Millipore). DMSO was used as a negative control, the combination of Forskolin and IBMX was included as positive control activators GLP-1. GLP-1 levels measured were standardized against the DMSO control.
The EC50 levels each one of oleoyl-LPI, compound ps297b and compound ps316a were also measured in quadruplicates at the conclusion of the 2 hour incubation. Guinea pig cells obtained as described above were also incubated with […] in quadruplicates and subjected to 2-hour long incubation at 37 C 5% CO2 as described above and EC50 levels measured.

[2] = NCI-H716 cells, standardized relative to maximum GLP-1 secretion obtained with oleoyl-LPI

Row | SMILES | Emax (NCI-H716 cells; [2]) [%] | further results
1 | CCCCCCCC/C=C\CCCCCCCC(=O)Nc1ccc(-c2nnnn2C)cc1 [ps298b] | 0 to 20 | –
2 | CCCCCCCC/C=C\CCCCCCCC(=O)Nc1ccc(-c2nnn[nH]2)cc1.[Na+] [ps321a] | – | GLP-1 biosynthesis and secretion from NCI-H716 L cells (NCI-H716 cells): able to mediate GLP-1 biosynthesis and secretion; GLP-1 secretion Activity relative to oleoyl-LPI (NCI-H716 cells; [2]): Low (low GLP-1 secretion activity (0-20% of maximum GLP-1 secretion achieved with oleoyl-LPI))
3 | CCCCCCCC/C=C\CCCCCCCC(=O)Nc1ccc(O)cc1 [ps300b] | 0 to 20 | –
4 | CCCCCCCCCCCCCCCC(=O)Nc1ccc(C#N)cc1 [ps317b] | 0 to 20 | –
5 | CCCCCCCC/C=C\CCCCCCCC(=O)Nc1ccc(C#N)cc1F [ps306a] | 0 to 20 | –
6 | CCCCCCCC/C=C\CCCCCCCC(=O)Nc1ccc(C(=O)OC)cc1 [ps293a] | 0 to 20 | –
7 | CCCCCCCC/C=C\CCCCCCCC(=O)Nc1cccc(-c2nnn[nH]2)c1 [ps318a] | > 80 | GLP-1 biosynthesis and secretion from NCI-H716 L cells (NCI-H716 cells): able to mediate GLP-1 biosynthesis and secretion; level of GLP-1 biosynthesis and secretion compared with oleoyl-LPI (NCI-H716 cells; NCI-H716 cells): higher than those achieved from oleoyl-LPI; activity in inducing and/or increasing secretion of GLP-1 from cells of the GI tract (NCI-H716 cells): equal to or higher than oleoyl-LPI
8 | CCCCC/C=C\C/C=C\CCCCCCCC(=O)Nc1ccc(C#N)cc1F [ps319] | 0 to 20 | GLP-1 biosynthesis and secretion from NCI-H716 L cells (NCI-H716 cells): able to mediate GLP-1 biosynthesis and secretion
9 | CCCCCCCC/C=C\CCCCCCCC(=O)Nc1ccc(-c2nnn(C)n2)cc1 [ps298a] | 0 to 20 | –
10 | CCCCCCCC/C=C\CCCCCCCC(=O)Nc1ccc(-c2nnn[nH]2)cc1F [ps309a] | > 80 | activity in inducing and/or increasing secretion of GLP-1 from cells of the GI tract (NCI-H716 cells): equal to or higher than oleoyl-LPI
11 | CCCCCCCC/C=C\CCCCCCCC(=O)Nc1cccc(C#N)c1 [ps315a] | 0 to 20 | –
12 | CCCCC/C=C\C/C=C\C/C=C\C/C=C\CCCC(=O)NCc1ccc(O)c(OC)c1 [Arvanil, N-arachidonoyl-vanillyl-amide] | – | antagonist activity for GPR119 (inventors' conclusion) (Glutag cells): weak antagonist for GPR119; GLP-1 secretion, combination treatment (Glutag cells; Arvanil together with AR-231,453): significantly reduced GLP-1 secretion; GLP-1 secretion, combination treatment (Glutag cells; Arvanil with either OEA or LPI): significantly enhanced GLP-1 secretion
13 | CCCCCCCC/C=C\CCCCCCCC(=O)Nc1ccc(-c2nnn[nH]2)c(F)c1 [ps312a] | 21 to 79 | –
14 | CCCCC/C=C\C/C=C\CCCCCCCC(=O)Nc1ccc(-c2nnn[nH]2)cc1 [ps316a] | > 80 | GLP-1 biosynthesis and secretion from NCI-H716 L cells (NCI-H716 cells): able to mediate GLP-1 biosynthesis and secretion; level of GLP-1 biosynthesis and secretion compared with oleoyl-LPI (NCI-H716 cells; NCI-H716 cells): higher than those achieved from oleoyl-LPI; activity in inducing and/or increasing secretion of GLP-1 from cells of the GI tract (NCI-H716 cells): equal to or higher than oleoyl-LPI; GLP-1 levels compared with oleoyl-LPI ([1]; 20 μM, 2 hours): above those observed for the endogenous GRP119 ligand, oleoyl-LPI; GLP-1 biosynthesis and secretion ex vivo ([1]; 20 μM, 2 hours, standardized against DMSO control): stimulated biosynthesis and secretion; stability after incubation ex vivo ([1]; 2 hours incubation ex vivo): remained stable after 2 hours incubation ex vivo; EC50 ([1]; Cavia porcellus, ex vivo incubation 2 hours, quadruplicates): 22.4 µM
15 | CCCCC/C=C\C/C=C\CCCCCCCC(=O)Nc1ccc(-c2nnn[nH]2)cc1F [ps323b] | 0 to 20 | GLP-1 biosynthesis and secretion from NCI-H716 L cells (NCI-H716 cells): able to mediate GLP-1 biosynthesis and secretion
16 | CCCCCCCC/C=C\CCCCCCCC(=O)Nc1ccc(C#N)c(F)c1 [ps308c] | 0 to 20 | –
17 | CCCCC/C=C\C/C=C\CCCCCCCC(=O)Nc1ccc(C#N)cc1 [ps314b] | 0 to 20 | –
18 | CCCCCCCC/C=C\CCCCCCCC(=O)Nc1ccc(C(=O)O)cc1 [ps294a] | 0 to 20 | –
19 | CC(C)c1noc(C2CCN(c3ncnc(Nc4ccc(S(C)(=O)=O)cc4F)c3[N+](=O)[O-])CC2)n1 [AR-231,453] | – | GLP-1 secretion (Glutag cells; two hours treatment, compound alone): significantly increases GLP-1 secretion
20 | CCCCCCCC/C=C\CCCCCCCC(=O)Nc1ccc(C#N)cc1 [ps292a] | 0 to 20 | –
21 | CCCCCCCC/C=C\CCCCCCCC(=O)Nc1ccc(OC)cc1 [ps301a] | 0 to 20 | –
22 | CCCCCCCCCCCCCCCC(=O)Nc1ccc(-c2nnn[nH]2)cc1 [ps320c] | 0 to 20 | –
